Experimental data reported in patent publication US5217952A, “Peptides WS-9326a and WS-9326b, derivatives thereof and uses thereof” (Fujisawa Pharmaceutical Co., Ltd., priority 1988, dated 1993).
Numbered stars: 1 amine (or outer) side, 2 acyl side, 3 side chain; on linkers, the order of the positions; unused ones are H or OH. Bridge positions count the residues as written; N and C are the ends. Square brackets hold non-standard residues; d marks the D form. Peptide text beside a SMILES is read from it. * marks the point of attachment. Cinnamoyl(2-(1Z-pentenyl)) = CCC/C=C\c1ccccc1/C=C/C(=O)*; X1 = CN(/C(=C/c1ccc(O)cc1)C(=O)[*:2])[*:1]; NMeY = CN[C@@H](Cc1ccc(O)cc1)C(=O)O; aThr = C[C@H](O)[C@H](N)C(=O)O; X2 = CCCCCc1ccccc1CCC(=O)*

Legend:
[1] = tested on: neurokinin A induced bronchoconstriction; assay: Neurokinin A induced bronchoconstriction, intratrachea administration; type: in vivo, guinea-pigs; conditions: for Inhibition (%) of neurokinin A response / ED50 mg/kg, inhibition of neurokinin A response: NKA 1 n mol/kg iv; for Effect of intratrachea administration on neurokinin A induced bronchoconstriction (in words): dissolved in DMSO; for Effect of intratrachea administration on neurokinin A induced bronchoconstriction (in words) / ED50 mg/kg, inhibition of neurokinin A response: intratrachea
Method: (§1) Male Hartley strain guinea-pigs weighing 300-500 g were immobilized with sodium pentobarbital (10 mg/animal administered intraperitoneally). The jugular vein was cannulated for administration of neurokinin A (or capsaicin) and drug. A catheter was also intubated into trachea for artifical ventilation. The animal was respirated by means of a miniature respiration pump (HARVARD B-34, 5 ml/stroke, 60 strokes/minute). Resistance to lung inflation was measured by a modification of Konzett-Rossler overflow technique.
The method was almost same as mentioned above.

[2] = tested on: contractile responses of guinea pig trachea induced by substance P (SP); assay: Contractile response of guinea pig trachea induced by substance P; conditions: for IC50: read-out: IC50 (M), SP 10^-8 M induced contraction
Method: (§3) Tracheal spiral strips were prepared from adult, male, albino Hartley strain guinea pigs (600 g) according to standard technique and placed in jacketed 30 ml glass tissue bath. […] Tracheal strips (2 mm width and 50 mm length) were suspended under a resting tension of 500 mg in 30 ml organ baths containing warm (37° C.) oxygenated (95% O2 : 5% CO2) Tyrode solution of following composition: NaCl 137 mM (8 g/liter), KCl 2.7 mM (0.2 g/liter), CaCl2 ·2H2 O 1.8 mM (0.264 g/liter), MgCl2 ·6H2 O 1.02mM (0.208 g/liter), NaHCO3 11.9 mM (1 g/liter), NaH2 PO4 ·2H2 O 0.42 mM (0.066 g/liter) and glucose 5.5 mM (1 g/liter).

[3] = Solubility (physical and chemical properties); type: physicochemical
[4] = tested on: neurokinin A induced bronchoconstriction; assay: Neurokinin A induced bronchoconstriction, drug iv; type: in vivo, guinea-pigs; conditions: 10 mg/kg, n:5
Method: as §1
(§2) Agonist was administered iv and the antagonist drug (prepared in 0.1% methyl cellulose-saline) was administered iv as shown below. [drawing 7]

[5] = tested on: capsaicin induced bronchoconstriction; assay: Capsaicin induced bronchoconstriction, drug iv; type: in vivo, guinea-pigs; conditions: 10 mg/kg, n:4
Method: as §1, §2

[6] = Acute toxicity, single intraperitoneal injection; conditions: mouse, in vivo, ip, ddY mice, male
Method: Acute toxicity of WS-9326A was determined in ddY mice (5 weeks old, male) by a single intraperitoneal injection of graded dose of test compound into 5 mice.

[7] = tested on: contractile responses of guinea pig trachea induced by neurokinin A (NKA); assay: Contractile response of guinea pig trachea induced by neurokinin A
Method: as §3

[8] = target: T1, specific [^3 H] substance P binding to guinea pig lung membranes (Cavia porcellus, UniProt P30547); assay: ^3H-Substance P binding to guinea pig lung membranes (radioligand binding assay); conditions: 3H-Substance P 1 nM, 4° C., 30 minutes, read-out: IC50 (M) lung, displacement of specific [3H] substance P binding
T1 construct: The trachea and lungs were removed, and stored at -80° C. until use; from tissue; host or cells: guinea pig trachea and lung crude membrane fraction
T1 sequence (P30547 whole entry): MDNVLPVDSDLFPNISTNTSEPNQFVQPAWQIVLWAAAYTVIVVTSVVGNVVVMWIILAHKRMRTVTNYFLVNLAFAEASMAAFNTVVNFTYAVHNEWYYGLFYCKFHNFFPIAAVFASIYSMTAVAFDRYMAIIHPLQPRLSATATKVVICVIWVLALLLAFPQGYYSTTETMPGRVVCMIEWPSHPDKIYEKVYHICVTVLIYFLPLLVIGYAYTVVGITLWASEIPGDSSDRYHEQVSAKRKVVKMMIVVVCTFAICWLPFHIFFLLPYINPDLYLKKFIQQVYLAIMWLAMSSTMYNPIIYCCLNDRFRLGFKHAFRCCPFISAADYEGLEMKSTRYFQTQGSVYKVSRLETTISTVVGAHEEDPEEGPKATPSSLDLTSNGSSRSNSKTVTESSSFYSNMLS
Method: Male albino Hartley strain guinea pigs (600 g) were sacrificed by decapitation. The trachea and lungs were removed, and stored at -80° C. until use. […] The tissue was homogenized with a Ultra-Disperser (YAMATO, MODEL LK-21) at a setting of maximum range for 10-s at 10-s intervals with cooling between homogenizations (total homogenization's time: 60 seconds). The homogenate was centrifuged (900×g for 10 min.) to remove tissue supernatant centrifuged at 14000×g for 20 min. to yield pellets which were referred to as crude membrane fractions. The pellets were resuspended in Medium I, homogenized with a teflon homogenizer and centrifuged at 14000×g for 20 min. The pellets were stored at -20° C.
^3 H-Substance P (1 nM, New England Nuclear) was incubated with 50 μl of the membrane preparation in medium I at 4° C. for 30 minutes in a final volume of 250 μl. At the end of the incubation period, its contents were quickly filtered over a whatmann GF/B glass fibre filter (pretreated with 0.1% polyethyleneimine for 3 hours prior to use) using cell harvester (BRANDEL M-24S). The filters were then washed ten times with a total of 3 ml of the washing buffer (50 mM Tris-HCl pH 7.5) at 0° C. The radioactivity was counted in 3 ml of Aquazol-2 in Packard sintillation counter (PACKARD TRI-CARB 4530).

[9] = tested on: acetic acid induced writhing; assay: Analgesic action, acetic acid induced writhing; type: in vivo; conditions: male ddY mice; intraperitoneally 15 minutes before acetic acid
Method: Ten male ddY strain mice were used par group. To estimate the frequency of writhing syndrome, the animals were observed from 3 to 13 minutes after an intraperitoneal injection of 0.2 ml/10 g of 0.6% acetic acid. […] The frequency of writhing syndrome in the treated animals was compared with that in the non-treated control animals.

[10] = intratrachea 0.03 mg/kg in DMSO, 20 minutes
[11] = intratrachea 0.03 mg/kg in DMSO, 35 minutes
[12] = intratrachea 0.03 mg/kg in DMSO, 50 minutes
[13] = intratrachea 0.03 mg/kg in DMSO, 65 minutes
[14] = intratrachea 0.3 mg/kg in DMSO, 20 minutes
[15] = intratrachea 0.3 mg/kg in DMSO, 35 minutes
[16] = intratrachea 0.3 mg/kg in DMSO, 50 minutes
[17] = intratrachea 0.3 mg/kg in DMSO, 65 minutes

## CCC/C=C\c1ccccc1/C=C/C(=O)N[C@@H]1C(=O)N(C)/C(=C/c2ccc(O)cc2)C(=O)N[C@@H](CC(C)C)C(=O)N[C@H](Cc2ccccc2)C(=O)N[C@@H]([C@H](C)O)C(=O)N[C@@H](CC(N)=O)C(=O)N[C@@H](CO)C(=O)O[C@@H]1C [WS-9326A] ({Cinnamoyl(2-(1Z-pentenyl))}-T[X1]L[dF][aThr]NS; ester 1-C; N-terminus assumed)
[1]; [10]
  Inhibition (%) of neurokinin A response: 32.3%
[1]; [11]
  Inhibition (%) of neurokinin A response: 28.4%
[1]; [12]
  Inhibition (%) of neurokinin A response: 35.6%
[1]; [13]
  Inhibition (%) of neurokinin A response: 35.5%
[1]; [14]
  Inhibition (%) of neurokinin A response: 50.6%
[1]; [15]
  Inhibition (%) of neurokinin A response: 42.4%
[1]; [16]
  Inhibition (%) of neurokinin A response: 44.9%
[1]; [17]
  Inhibition (%) of neurokinin A response: 42.0%
[1]; intratrachea 3 mg/kg in DMSO, 20 minutes
  Inhibition (%) of neurokinin A response: 73.4%
[1]; intratrachea 3 mg/kg in DMSO, 35 minutes
  Inhibition (%) of neurokinin A response: 79.4%
[1]; intratrachea 3 mg/kg in DMSO, 50 minutes
  Inhibition (%) of neurokinin A response: 81.7%
[1]; intratrachea 3 mg/kg in DMSO, 65 minutes
  Inhibition (%) of neurokinin A response: 77.7%
[1]
  Effect of intratrachea administration on neurokinin A induced bronchoconstriction (in words): highly potent
[1]; 20 minutes
  ED50 mg/kg, inhibition of neurokinin A response: 0.23 mg/kg
[1]; 35 minutes
  ED50 mg/kg, inhibition of neurokinin A response: 0.29 mg/kg
[1]; 50 minutes
  ED50 mg/kg, inhibition of neurokinin A response: 0.19 mg/kg
[1]; 65 minutes
  ED50 mg/kg, inhibition of neurokinin A response: 0.24 mg/kg
[2]; 3 μg/ml
  Inhibition % SP 10^-8 M: -10%
[2]; 10 μg/ml
  Inhibition % SP 10^-8 M: 50%
[2]; 30 μg/ml
  Inhibition % SP 10^-8 M: 63%
[2]
  IC50: 9.7e-06 M
[3]; acetone
  Solubility: Sparingly Soluble
[3]; chloroform
  Solubility: Insoluble
[3]; ethanol
  Solubility: Soluble
[3]; ethyl acetate
  Solubility: Sparingly Soluble
[3]; methanol
  Solubility: Soluble
[3]; water
  Solubility: Insoluble
[4]; 2 minutes
  Inhibition (%) of neurokinin A (1 n mol/kg, iv) response: -16.5 ± 5.6%
[4]; 17 minutes
  Inhibition (%) of neurokinin A (1 n mol/kg, iv) response: 30.2 ± 12.9%
[4]; 32 minutes
  Inhibition (%) of neurokinin A (1 n mol/kg, iv) response: 45.8 ± 13.8%
[4]; 47 minutes
  Inhibition (%) of neurokinin A (1 n mol/kg, iv) response: 55.4 ± 8.1%
[4]; 62 minutes
  Inhibition (%) of neurokinin A (1 n mol/kg, iv) response: 49.9 ± 13.4%
[5]; 2 minutes
  Inhibition (%) of capsaicin (10 n mol/kg, iv) response: 16.6 ± 5.1%
[5]; 17 minutes
  Inhibition (%) of capsaicin (10 n mol/kg, iv) response: 40.6 ± 12.2%
[5]; 32 minutes
  Inhibition (%) of capsaicin (10 n mol/kg, iv) response: 51.2 ± 10.4%
[5]; 47 minutes
  Inhibition (%) of capsaicin (10 n mol/kg, iv) response: 37.2 ± 19.7%
[5]; 62 minutes
  Inhibition (%) of capsaicin (10 n mol/kg, iv) response: 47.1 ± 16.7%
[6]
  LD50: 250 to 500 mg/kg
[7]; 3 μg/ml
  Inhibition % NKA 10^-9 M: 44%
[7]; 10 μg/ml
  Inhibition % NKA 10^-9 M: 79%
[7]; 30 μg/ml
  Inhibition % NKA 10^-9 M: 100%
[7]; read-out: IC50 (M), NKA 10^-9 M induced contraction
  IC50: 3.5e-06 M

## CCC/C=C\c1ccccc1/C=C/C(=O)N[C@@H]1C(=O)N(C)[C@@H](Cc2ccc(O)cc2)C(=O)N[C@@H](CC(C)C)C(=O)N[C@H](Cc2ccccc2)C(=O)N[C@@H]([C@H](C)O)C(=O)N[C@@H](CC(N)=O)C(=O)N[C@@H](CO)C(=O)O[C@@H]1C [WS-9326B] ({Cinnamoyl(2-(1Z-pentenyl))}-T[NMeY]L[dF][aThr]NS; ester 1-C)
[3]; acetone
  Solubility: Insoluble
[3]; chloroform
  Solubility: Insoluble
[3]; ethanol
  Solubility: Sparingly Soluble
[3]; ethyl acetate
  Solubility: Insoluble
[3]; methanol
  Solubility: Soluble
[3]; water
  Solubility: Insoluble
[8]
  IC50: 8.8e-05 M

## CCCCCc1ccccc1CCC(=O)N[C@@H]1C(=O)N(C)/C(=C/c2ccc(O)cc2)C(=O)N[C@@H](CC(C)C)C(=O)N[C@H](Cc2ccccc2)C(=O)N[C@@H]([C@H](C)O)C(=O)N[C@@H](CC(N)=O)C(=O)N[C@@H](CO)C(=O)O[C@@H]1C [Tetrahydro-WS-9326A, tetrahydro-WS-9326A] (X2-T[X1]L[dF][aThr]NS; ester 1-C; N-terminus assumed)
[1]; intratrachea 0.003 mg/kg in DMSO, 20 minutes
  Inhibition (%) of neurokinin A response: 5.4%
[1]; intratrachea 0.003 mg/kg in DMSO, 35 minutes
  Inhibition (%) of neurokinin A response: 23.5%
[1]; intratrachea 0.003 mg/kg in DMSO, 50 minutes
  Inhibition (%) of neurokinin A response: 17.2%
[1]; intratrachea 0.003 mg/kg in DMSO, 65 minutes
  Inhibition (%) of neurokinin A response: 12.6%
[1]; [10]
  Inhibition (%) of neurokinin A response: 50.0%
[1]; [11]
  Inhibition (%) of neurokinin A response: 50.9%
[1]; [12]
  Inhibition (%) of neurokinin A response: 51.4%
[1]; [13]
  Inhibition (%) of neurokinin A response: 43.0%
[1]; [14]
  Inhibition (%) of neurokinin A response: 77.7%
[1]; [15]
  Inhibition (%) of neurokinin A response: 75.7%
[1]; [16]
  Inhibition (%) of neurokinin A response: 74.6%
[1]; [17]
  Inhibition (%) of neurokinin A response: 71.1%
[1]
  Effect of intratrachea administration on neurokinin A induced bronchoconstriction (in words): highly potent
[2]
  IC50: 3.1e-06 M
[4]; 2 minutes
  Inhibition (%) of neurokinin A (1 n mol/kg, iv) response: 41.0 ± 5.6%
[4]; 17 minutes
  Inhibition (%) of neurokinin A (1 n mol/kg, iv) response: 100.0 ± 0.0%
[4]; 32 minutes
  Inhibition (%) of neurokinin A (1 n mol/kg, iv) response: 99.2 ± 0.8%
[4]; 47 minutes
  Inhibition (%) of neurokinin A (1 n mol/kg, iv) response: 98.4 ± 1.6%
[4]; 62 minutes
  Inhibition (%) of neurokinin A (1 n mol/kg, iv) response: 100.0 ± 0.0%
[9]
  ED50, acetic acid induced writhing: 5.5 mg/kg
